Where two headings read alike, the source gives them in different places.
Columns and labels:
Type in all cases: cell-based, Lawsonia intracellularis
[1] = tested on: L. intracellularis swine isolate PHE/MN-001; details: p49, after 9 passages, McCoy cells, cysteine hydrochloride 0.02%
Procedure: Two 75 cm^2 flasks were seeded in a similar manner as described for the hamster STR isolate, starting with 6×10^5 McCoy cells in DMEM with 7% FBS, and incubated overnight at 37° C. in 5% CO2. […] The following day, the flasks were infected using the supernatant and cell lysate from L. intracellularis (PHE/MN-001 isolate)-infected McCoy cells at passage 40. One flask was evacuated, supplemented with 0.02% cysteine hydrochloride, purged with hydrogen, and placed in the incubator. The second flask was supplemented with 0.02% cysteine hydrochloride and placed in the incubator without first purging using hydrogen. The two 48-well plates were infected with L. intracellularis in parallel with the two flasks, and once again served as controls for monitoring the infection and for immunostaining. The flasks and 48-well plates were incubated in the incubator at 8.0% CO2, 8.8% O2 and 83.2% N2. The flasks were re-fed with 50% volume of media on day 2 and day 5 post-infection using DMEM with 5% FBS.
The bacteria were passaged by cell lysis, as described in earlier. […] The percent of McCoy cells infected with cysteine hydrochloride and hydrogen gassing, as compared with cysteine HCl alone, was evaluated after each bacterial passage.

[2] = tested on: L. intracellularis (STR isolate); details: after 10 passages; McCoy cells; cysteine hydrochloride 0.02%, no hydrogen purge
Procedure: The bacteria were passaged by cell lysis. Supernatants and cell lysates were prepared from both flasks, as described earlier, and were used to infect fresh monolayers of McCoy cells seeded into 25 cm^2 or 75 cm^2 flasks at split ratios of 1:1 or 1:2, depending on the extent of infection as determined by immunostaining of the 48-well plate monolayers.
The 48-well plates infected with or without cysteine hydrochloride were fixed with 80% acetone on day 5 post-infection, and stained using the immunoperoxidase and immunofluorescence methods as described previously. The percent of McCoy cells infected using hydrogen gassing versus cysteine HCl was evaluated after each bacterial passage.

[3] = tested on: L. intracellularis swine isolate VP1; details: McCoy cells; for Monolayer infection by immunoperoxidase staining: day 5 or 6 post-infection
Procedure: L. intracellularis swine isolate VP1 (passage 17) was used to infect McCoy cells. McCoy cells were seeded in tissue culture flasks at 1.25×10^5 cells per 25 cm^2 flask, and 1.25×10^4 cells per Trac bottle (Bibby Sterilin Ltd.; Staffordshire, United Kingdom), in DMEM supplemented with 7% fetal bovine serum (FBS). The Trac bottle was used to monitor simulative infection in the flask. The flasks and Trac bottles were incubated overnight at 37° C. in a humidified incubator with 5% CO2. The following day, cells in both the flask and Trac bottle were infected with the L. intracellularis swine isolate (passage 17) in fresh DMEM with 7% FBS. After the addition of L. intracellularis, the flasks and Trac bottles were treated in three different ways. One flask and the corresponding Trac bottle were evacuated at 15 psi of Hg vacuum and purged with pure hydrogen. A second flask and the corresponding Trac bottle were neither evacuated nor purged with hydrogen, but instead received a supplement of cysteine hydrochloride (Sigma, C-7477; St. Louis, Mo.), β-NAD and phoshatidylcholine to a final concentration of 0.01%, 5 mM and 100 ng/ml, respectively, during the first two passages, and only cysteine hydrochlride (0.02% final concentration) during the later passages. The third flask and the corresponding Trac bottle were not evacuated or purged with hydrogen, nor received any supplements. All flasks and Trac bottles were incubated at 37° C. in an incubator containing 8.0 % O2 and 8.8% CO2 and 83.2% N2. On day 2 and 5 post-infection, 50% of the media from all flasks and Trac bottles was replaced with fresh DMEM with 5% FBS with or without cysteine hydrochloride, β-NAD and phoshatidylcholine.
On day 5 or 6 post-infection, the monolayers in the tissue culture flasks were monitored by immunoperoxidase staining of the corresponding Trac bottle cover slip. Briefly, the cover slip from the Trac bottle was removed and washed gently with Phosphate Buffered Saline (PBS), and bound to a microscope slide using a permanent glue. The cover slip then was fixed in acetone for 30 sec at room temperature. Rabbit anti-L. intracellularis polyclonal antibody, diluted 1:400 in PBS, was added to cover the entire cover slip, which was then incubated in a humidified environment at 37° C. for 30 min. The cover slip was washed gently with PBS and a 1:20 dilution of peroxidase-conjugated goat anti-rabbit IgG (H+L; Kirkegaard & Perry Laboratories, Inc.; Gaithersburg, Md.) was added to the cover slip and incubated for 30 min at 37° C. Peroxidase substrate solution was prepared by dissolving 10 mg of 3,3′-Diaminobenzidine (DAB; Sigma-Aldrich; St. Louis, Mo.) in 20 ml of PBS. After filtration through Whatman 113V filter paper (Whatman International Ltd.; Kent, United Kingdom), 40 μl of 30% H2O2 was added to the dissolved substrate. The final substrate solution was added to the cover slip and incubated at room temperature for 5 min. After rinsing with tap water, the cover slip was counterstained for 30 sec using Modified Harris Hematoxylin Solution (Sigma-Aldrich). The stained slide then was rinsed with tap water and observed under a microscope. Infection of the McCoy cells was also assessed by microscopic viewing of the bacteria in the media within the flask.
The infected McCoy cells in the flask were lysed using a 0.1% potassium chloride (KCl) solution on day 6 or 7 post-infection. The lysed material was used to re-infect fresh McCoy cell monolayers in flasks and Trac bottles. Briefly, after removing the media from the flask, a 0.1% KCl solution was added (5 ml per 25 cm^2) and incubated at 37° C. for 5-10 min. The KCl solution was removed from the flask, and 2 ml of sucrose potassium glutamate (SPG; 0.218M sucrose, 0.0038M KH2PO4, 0.0072M K2H PO4, and 0.0049M potassium glutamate) with 5% FBS was added. A cell scraper was then used to remove the cells from the flask. They were then lysed by forcing them through a syringe fitted with a 18 ga needle. […]

[4] = tested on: L. intracellularis hamster isolate STR; details: McCoy cells; day 5 post-infection; cysteine hydrochloride 0.02%
Procedure: The cells were incubated overnight at 37° C. in 5% CO2, and were infected the next day with ˜5×10^5 bacteria per 25 cm^2flask. The infected flasks and the 48-well plates were evacuated at 15 psi of Hg vacuum and purged with hydrogen. A second set of flasks and corresponding Trac bottles were evacuated and purged with pure nitrogen, and cysteine hydrochloride was added to a final concentration of 0.02%. The infected flasks and plates were incubated in a bi-gas incubator at 8.0% CO2, 8.8% O2 and 83.2% N2. The flasks were re-fed with 50% volume of media on day 2 and day 5 post-infection, using DMEM with 5% FBS. A determination of the degree of infection was made on day 5 using immunoperoxidase staining. Lysis and re-infection were carried out based on the extent of infection as monitored by immunostaining of 48-well plate infections (routinely on day 7 post-infection). The media supernatant was collected from the flasks and centrifuged at 3500 g for 30 minutes. The supernatant was discarded and the pellet resuspended in SPG with 5% FBS. The monolayers were washed with PBS, followed by the addition of water and incubation at 37° C. for 15 min, at which time cells began detaching from the flask. The cells were then lysed by passaging 4 to 5 times through a syringe fitted with an 18 ga needle. The lysate was centrifuged at 350 g for 5 min to pellet the cell nuclei. […]

[5] = tested on: L. intracellularis isolate VP1; details: cysteine HCl 0.02%; for Bacteria in the Supernatant / Bacteria in the Supernatant: motility / Monolayer infection by staining: McCoy cells; for Monolayer infection by staining: day 6 or 7 post-infection; for Flagella in lysed material by fluorescent antibody (FITC) staining: hydrochloride
Procedure: In a separate set of experiments, L. intracellularis isolate VP1 (passage 23) was used to infect McCoy cell monolayers. The cells were then placed in a microaerophilic environment for 15 days. […] Flasks were re-fed with fresh media. […] Monolayer cells from the flask were lysed using water. Briefly, media from the flask was removed, and approximately 16 ml of sterile de-ionized water was added to the flask, followed by incubation at 37° C. for 10 min. […] The flask was then gently tapped against the palm of the hand, and a drop of the lysed material was observed under a microscope. […] A 4.25% NaCl solution was immediately added to bring the media to near normal physiological osmolarity.
The lysed material was centrifuged at 3200×g for 15 minutes. The resultant pellet was re-suspended in 41 ml of DMEM with 7% FBS, and was used to infect fresh McCoy cells. 35 ml of this lysed L. intracellularis infective material was added to one 175 cm^2 flask seeded with McCoy cells, and 0.5 ml to one seeded Trac bottle. Both the flask and the Trac bottle were evacuated with a vacuum at 15 psi of Hg, and then purged with pure hydrogen. 5 ml and 0.5 ml of the material were also used to infect McCoy cells seeded in a 25 cm^2 flask and a Trac bottle, respectively. Following evacuation with 15 psi of vacuum and a nitrogen flush, a 5× stock solution of cysteine HCl was added to the 25 cm^2 flask and the corresponding Trac bottle to a final concentration of 0.02%. All flasks and Trac bottles were incubated at 37° C. in an incubator containing 8.0% oxygen, 8.8% carbon dioxide and 83.2% nitrogen. Re-feeding was carried out as described above; the flask and Trac bottle which received cysteine HCl were also refed to the same final concentration (0.02%).
The infection was monitored on day 6 or 7 post-infection by immunoperoxidase staining of the corresponding cover slips as described above. Infection was also monitored by flourescent antibody staining. Briefly, cell lysate was collected on a Cytospin microscopic slide using a Cytofunnel sample chamber (Shandon Inc.; Pittsburg, Pa.) and centrifugation for 10 min at 1500 rpm. The sample was air dried and fixed in acetone for 30 sec. The smear was then covered with a 1:400 dilution of rabbit anti-L. intracellularis polyclonal serum and incubated at 37° C. for 30 min. The slide was washed gently with PBS, and a 1:20 dilution of fluorescein-labeled Goat anti-rabbit IgG (H+L; Kirkegaard & Perry Labs) was added to the smear, and the slide was incubated at 37° C. for 30 min. It was then observed under a fluorescent microscope.

[6] = passage P18, Treatment 2 = cysteine HCl 0.01% + β-NAD 5 mM + phosphatidylcholine 100 ng/ml
[7] = passage P18, Treatment 2 = cysteine HCl 0.01% + β-NAD + phosphatidylcholine
[8] = passage P19, Treatment 2 = cysteine HCl 0.01% + β-NAD + phosphatidylcholine

| SMILES | Bacterial Counts (per ml supernatant) ([1]; Split Ratio 1:2) | Bacterial Counts (per ml supernatant) ([1]; Split Ratio 1:4) | Culture expansion from one 25 cm^2 flask (increase) [2] | Bacteria in the Supernatant [3, 6] | Monolayer infection by immunoperoxidase staining [3, 7] | Monolayer infection by immunoperoxidase staining [3, 8] | Monolayer infection by immunoperoxidase staining ([3]; passage P20, cysteine HCl 0.02% only) | Bacteria in the Supernatant ([3]; passage P21, cysteine HCl 0.02% only) | Infection by immunoperoxidase staining of cover slips [4] | Bacteria in the Supernatant ([5]; passage P25) | Bacteria in the Supernatant: motility ([5]; passage P25) | Monolayer infection by staining ([5]; passage P26) | L. intracellularis infection of McCoy cells compared to infection using hydrogen gassing [5] | Viability of L. intracellularis ([5]; inactive culture after 15 days in microaerophilic environment) | Flagella in lysed material by fluorescent antibody (FITC) staining ([5]; passage P25) | Flagella in lysed material by fluorescent antibody (FITC) staining ([5]; passage P25, listed as cysteine chloride) | Bacteria in the Supernatant ([3]; passage P20) | Monolayer infection by staining ([5]; passage P25) |
| --- | --- | --- | --- | --- | --- | --- | --- | --- | --- | --- | --- | --- | --- | --- | --- | --- | --- | --- |
| Cl.N[C@@H](CS)C(=O)O [cysteine hydrochloride] | 8.5 × 10^7 per ml supernatant | 5.8 × 10^7 per ml supernatant | 12 fold | Slightly positive | Little or no infection | 20% | 30-40% (larger foci of | Highly positive | about 20% | Slightly positive, | highly motile | 50-60% infection | enhanced | viability could be restored | elevated flagellar expression | showed large numbers of flagella. | – | – |
| [HH] [hydrogen, reference compound] | – | – | 4 fold | Positive | 60-70% | ≧80% | – | – | about 20% | Slightly positive, | Normal motilty | – | – | – | – | – | Highly positive | Lesser infection (smaller and |

— patent publication US20090232848A1, “METHODS FOR CULTIVATING LAWSONIA INTRACELLULARIS” (priority 2004, published 2009)
